Counter-ions that a name gives are not always drawn. Like-named read-outs stand apart in the source and are kept apart here.
Assays:
cGMP PDE5 = target: T1, cGMP PDE5 (Homo sapiens, UniProt O76074); assay: In vitro cGMP PDE5 inhibitory activity (IC50); format: biochemical
T1 construct: The required PDE enzymes were isolated from a variety of sources, including human corpus cavernosum, human platelets; from tissue; host or cells: human corpus cavernosum tissue or human platelets
Experimental: The compounds of the present invention are potent and selective cGMP PDE5 inhibitors. In vitro PDE inhibitory activities against cyclic guanosine 3′,5′-monophosphate (cGMP) and cyclic adenosine 3′,5′-monophosphate (cAMP) phosphodiesterases were determined by measurement of their IC50 values (the concentration of compound required for 50% inhibition of enzyme activity).
The required PDE enzymes were isolated from a variety of sources, including human corpus cavernosum, human platelets, human cardiac ventricle, human skeletal muscle and human and canine retina, essentially by the method of W. J. Thompson and M. M. Appleman (Biochem., 1971, 10, 311). In particular, the cGMP-specific PDE (PDE5) and the cGMP-inhibited cAMP PDE (PDE3) were obtained from human corpus cavernosum tissue or human platelets; the cGMP-stimulated PDE (PDE2) was obtained from human corpus cavernosum or human platelets; the calcium/calmodulin (Ca/CAM)-dependent PDE (PDE1) from human cardiac ventricle; the cAMP-specific PDE (PDE4) from recombinant clone or human skeletal muscle; and the photoreceptor PDE (PDE6) from canine or human retina. Phosphodiesterases 7-11 were generated from full length human recombinant clones transfected into SF9 cells.
Assays were performed either using a modification of the “batch” method of W. J. Thompson et al. (Biochem., 1979, 18, 5228) or using a scintillation proximity assay for the direct detection of AMP/GMP using a modification of the protocol described by Amersham pic under product code TRKQ7090/7100. In summary, the effect of PDE inhibitors was investigated by assaying a fixed amount of enzyme in the presence of varying inhibitor concentrations and low substrate, (cGMP or cAMP in a 3:1 ratio unlabelled to [^3H]-labeled at a conc ˜½ Km) such that IC50 ≅Ki. The final assay volume was made up to 102 μl with assay buffer [20 mM Tris-HCl pH 7.4, 5 mM MgCl2, 1 mg/ml bovine serum albumin]. Reactions were initiated with enzyme, incubated for 30-60 min at 30° C. to give <30% substrate turnover and terminated with 50 μl yttrium silicate SPA beads (containing 3 mM of the respective unlabelled cyclic nucleotide for PDEs 3, 9 and 11). Plates were resealed and shaken for 20 min, after which the beads were allowed to settle for 30 min in the dark and then counted on a TopCount plate reader (Packard, Meriden, Conn.). Radioactivity units were converted to % activity of an uninhibited control (100%), plotted against inhibitor concentration and inhibitor IC50 values obtained using the ‘Fit Curve’ Microsoft Excel extension or inhouse equivalent.

[1] = bounds for groups of Examples, read-out: IC50 values for the PDE5 enzyme
[2] = in vitro cGMP PDE5 inhibitory activity, Table 1, read-out: IC50

SMILES	melting point	IC50 (cGMP PDE5; [1])	IC50 (cGMP PDE5; [2])
CCCCOc1ccc(S(C)(=O)=O)cc1-c1nc2c(CC)nn(Cc3ccccn3)c2c(=O)[nH]1 (as salt: potassium) [Example 5, 5-[2-Butoxy-5-(methylsulfonyl)phenyl]-3-ethyl-1-(2-pyridinylmethyl)-1,6-dihydro-7H-pyrazolo[4,3-d]pyrimidin-7-one]	189 to 191 °C	–	–
CCc1c2nc(-c3cc(S(C)(=O)=O)ccc3OCC(C)C)[nH]c(=O)c2nn1Cc1ccccn1 [Example 17, 3-Ethyl-5-[2-isobutoxy-5-(methylsulfonyl)phenyl]-2-(2-pyridinylmethyl)-2,6-dihydro-7H-pyrazolo[4,3-d]pyrimidin-7-one]	235 to 238 °C	< 10 nM	4.8 nM
CCc1nn(Cc2cccnn2)c2c(=O)[nH]c(-c3cc(S(C)(=O)=O)ccc3OCC(C)C)nc12 [Example 16, 3-Ethyl-5-[2-isobutoxy-5-(methylsulfonyl)phenyl]-1-(3-pyridazinylmethyl)-1,6-dihydro-7H-pyrazolo[4,3-d]pyrimidin-7-one]	231 to 234 °C	< 10 nM	9.8 nM
CCc1nn(Cc2nccn2C)c2c(=O)[nH]c(-c3cc(S(C)(=O)=O)ccc3OCC(C)C)nc12 [Example 7, 3-Ethyl-5-[2-isobutoxy-5-(methylsulfonyl)phenyl]-1-[(1-methyl-1H-imidazol-2-yl)methyl]-1,6-dihydro-7H-pyrazolo[4,3-d]pyrimidin-7-one]	253 to 254 °C	< 10 nM	1.7 nM
CCCOc1ccc(S(C)(=O)=O)cc1-c1nc2c(CC)nn(C[C@@H]3CCCCN3C)c2c(=O)[nH]1 [Example 28, 3-Ethyl-1-{[(2S)-1-methylpiperidinyl]methyl}-5-[5-(methylsulfonyl)-2-propoxyphenyl]-1,6-dihydro-7H-pyrazolo[4,3-d]pyrimidin-7-one]	–	< 10 nM	3.6 nM
CCc1nn(C[C@@H]2CCCN2C)c2c(=O)[nH]c(-c3cc(S(C)(=O)=O)ccc3OCC(C)C)nc12 [Example 13, 3-Ethyl-5-[2-isobutoxy-5-(methylsulfonyl)phenyl]-1-{[(2S)-1-methylpyrrolidinyl]methyl}-1,6-dihydro-7H-pyrazolo[4,3-d]pyrimidin-7-one]	190 to 194 °C	< 10 nM	6.3 nM
CCc1c2nc(-c3cc(S(C)(=O)=O)ccc3OCC(C)C)[nH]c(=O)c2nn1C1CCN(C(C)C)CC1 [Example 22, 3-Ethyl-5-[2-isobutoxy-5-(methylsulfonyl)phenyl]-2-(1-isopropyl-4-piperidinyl)-2,6-dihydro-7H-pyrazolo[4,3-d]pyrimidin-7-one]	273 to 275 °C	–	13.4 nM
CCCOc1ccc(S(C)(=O)=O)cc1-c1nc2c(CC)nn(CCN(C(C)C)C(C)C)c2c(=O)[nH]1 [Example 24, 1-[2-(Diisopropylamino)ethyl]-3-ethyl-5-[5-(methylsulfonyl)-2-propoxyphenyl]-1,6-dihydro-7H-pyrazolo[4,3-d]pyrimidin-7-one]	–	< 10 nM	6.7 nM
CCc1n[nH]c2c(=O)[nH]c(-c3cc(S(C)(=O)=O)ccc3OCc3ccccn3)nc12 [Example 6, 3-Ethyl-5-[5-(methylsulfonyl)-2-(2-pyridinylmethoxy)phenyl]-1,6-dihydro-7H-pyrazolo[4,3-d]pyrimidin-7-one]	283 to 286 °C	–	–
CCCOc1ccc(S(C)(=O)=O)cc1-c1nc2c(CC)n(CCN(C(C)C)C(C)C)nc2c(=O)[nH]1 [Example 25, 2-[2-(diisopropylamino)ethyl]-3-ethyl-5-[5-(methylsulfonyl)-2-propoxyphenyl]-2,6-dihydro-7H-pyrazolo[4,3-d]pyrimidin-7-one]	–	< 10 nM	5.4 nM
CCCOc1ccc(S(=O)(=O)CC)cc1-c1nc2c(CC)nn(C[C@@H]3CCCN3C)c2c(=O)[nH]1 [Example 26, 3-Ethyl-5-[5-(ethylsulfonyl)-2-propoxyphenyl]-1-{[(2S)-1-methylpyrrolidinyl]methyl}-1,6-dihydro-7H-pyrazolo[4,3-d]pyrimidin-7-one]	–	–	18.3 nM
CCc1c2nc(-c3cc(S(C)(=O)=O)ccc3OCC(C)C)[nH]c(=O)c2nn1CCN1CCOCC1 [Example 10, 3-Ethyl-5-[2-isobutoxy-5-(methylsulfonyl)phenyl]-2-[2-(4-morpholinyl)ethyl]-2,6-dihydro-7H-pyrazolo[4,3-d]pyrimidin-7-one]	268 to 273 °C	< 10 nM	7.6 nM
CCc1nn(Cc2ccccn2)c2c(=O)[nH]c(-c3cc(S(C)(=O)=O)ccc3OCCOC)nc12 [Example 4, 3-Ethyl-5-[2-(2-methoxyethoxy)-5-(methylsulfonyl)phenyl]-1-(2-pyridinylmethyl)-1,6-dihydro-7H-pyrazolo[4,3-d]pyrimidin-7-one]	166 to 167 °C	–	–
C=CCc1nc(CC)n2nc(-c3cc(S(C)(=O)=O)ccc3OCCCC)[nH]c(=O)c12 [Example 29]	192 to 194 °C	< 10 nM	6.7 nM
CCc1c2nc(-c3cc(S(C)(=O)=O)ccc3OCC(C)C)[nH]c(=O)c2nn1C1CCN(C)CC1 [Example 21, 3-Ethyl-5-[2-isobutoxy-5-(methylsulfonyl)phenyl]-2-(1-methyl-4-piperidinyl)-2,6-dihydro-7H-pyrazolo[4,3-d]pyrimidin-7-one]	292 to 295 °C	–	12.5 nM
CCc1nn(C2CN(C(C)C)C2)c2c(=O)[nH]c(-c3cc(S(C)(=O)=O)ccc3OCC(C)C)nc12 [Example 20]	206 to 209 °C	–	13.7 nM
CCCOc1ccc(S(C)(=O)=O)cc1-c1nc2c(CC)nn(Cc3ccccn3)c2c(=O)[nH]1 (as salt: potassium) [Example 11, 3-Ethyl-5-[5-(methylsulfonyl)-2-propoxyphenyl]-1-(2-pyridinylmethyl)-1,6-dihydro-7H-pyrazolo[4,3-d]pyrimidin-7-one]	209 to 211 °C	–	–
CCc1c2nc(-c3cc(S(C)(=O)=O)ccc3OCC(C)C)[nH]c(=O)c2nn1Cc1cccnn1 [Example 15, 3-Ethyl-5-[2-isobutoxy-5-(methylsulfonyl)phenyl]-2-(3-pyridazinylmethyl)-2,6-dihydro-7H-pyrazolo[4,3-d]pyrimidin-7-one]	244 to 247 °C	< 10 nM	7.3 nM
CCCOc1ncc(S(C)(=O)=O)cc1-c1nc2c(CC)nn(C[C@@H]3CCCN3C)c2c(=O)[nH]1 [Example 23, 3-Ethyl-1-{[(2S)-1-methylpyrrolidinyl]methyl}-5-[5-(methylsulfonyl)-2-propoxy-3-pyridinyl]-1,6-dihydro-7H-pyrazolo[4,3-d]pyrimidin-7-one]	182 to 183 °C	–	–
CCCCOc1ccc(S(C)(=O)=O)cc1-c1nc2c(CC)n(CCN3CCOCC3)nc2c(=O)[nH]1 [Example 8, 5-[2-Butoxy-5-(methylsulfonyl)phenyl]-3-ethyl-2-[2-(4-morpholinyl)ethyl]-2,6-dihydro-7H-pyrazolo[4,3-d]pyrimidin-7-one]	235 to 238 °C	< 10 nM	10 nM
CCCCOc1ccc(S(C)(=O)=O)cc1-c1nc2c(CC)nn(Cc3ccccn3)c2c(=O)[nH]1 [Example 5, 5-[2-Butoxy-5-(methylsulfonyl)phenyl]-3-ethyl-1-(2-pyridinylmethyl)-1,6-dihydro-7H-pyrazolo[4,3-d]pyrimidin-7-one]	–	< 10 nM	3.5 nM
CCc1nn(Cc2ccccn2)c2c(=O)[nH]c(-c3cc(S(C)(=O)=O)ccc3OCC(C)C)nc12 [Example 3, 3-Ethyl-5-[2-isobutoxy-5-(methylsulfonyl)phenyl]-1-(2-pyridinylmethyl)-1,6-dihydro-7H-pyrazolo[4,3-d]pyrimidin-7-one]	223 to 225 °C	< 10 nM	1.5 nM
